We go through two compounds from patent publication US20250002450A1, “CATIONIC STEROID COMPOUNDS, METHOD OF OBTAINING THEREOF, FORMULATIONS COMPRISING THEREOF AND THEIR USES” (UNIVERSIDADE DO PORTO, priority 2021, published 2025).

Converted amounts (≈) assume the structure as drawn.

One assay has as its system C. albicans ATCC 10231. The experiment in a line: Potassium ion efflux analysis. In kind it is cell-based, Candida albicans. The following applies: 5 min. Here is the method:
In an embodiment, the potassium ion (K^+) efflux analysis was performed as follows ([FIG. 9]). Leakage of potassium ions is a common response to membrane-disrupting agents; therefore, extracellular K^+ was quantified by flame atomic absorption spectrometry, after 5 min of exposure to compound 1 ([FIG. 10]). […] Efflux of potassium was determined by quantification of extracellular K^+ by flame atomic absorption spectrometry. Cell suspensions of C. albicans ATCC 10231 were prepared in the same manner as described for PI influx assay, and test conditions were also the same. After 5 min of exposure, cells were centrifuged for 10 min at 3500 rpm and the supernatants were filtrated using a cellulose acetate syringe filter with a 0.22 µm pore size. Samples were analyzed with a AAnalyst 200 Atomic Absorption Spectrometer (Perkin Elmer). Four independent assays were performed and the data are presented as percentage of control (untreated cells as […] of K^+).

Assay [1] deals with Gram-negative and Gram-positive bacteria. The experiment in a line: Antibacterial activity, whole strain panel. Format: cell-based. From the text:
(§1) Twelve reference bacterial strains and nine MDR clinically relevant bacterial strains were used in this study. Gram-negative bacteria comprised reference strains E. coli ATCC 25922, K. pneumoniae ATCC 13883, Salmonella enterica serovar Typhimurium CECT 443, P. aeruginosa ATCC 27853, A. baumannii ATCC 19606, C. jejuni ATCC 33560 (ATCC—American Type Culture Collection; CECT—Colección Espanola de Cultivos Tipo); clinical isolates E. coli SA/2, an extended-spectrum β-lactamase (ESBL)-producing strain and P. aeruginosa 33b, a pan-drug-resistant isolate; and animal isolates C. jejuni P5/4, a ciprofloxacin-resistant strain, C. jejuni 4432, C. jejuni 4433, C. jejuni 4448, and E. coli 2252, a COL-resistant strain [42]. Gram-positive strains included S. aureus ATCC 29213, E. faecalis ATCC 29212, S. pyogenes ATCC 19615, and environmental isolates methicillin-resistant S. aureus (MRSA) 66/1 [43], and VAN-resistant enterococci (VRE) E. faecalis B3/101 [44]. Gram-negative fish pathogens Yersinia ruckeri ATCC 29473, Listonella anguillarum ATCC 1924, and Tenacibaculum maritimum ATCC 43397 were also included.
(§2) Strains were kept in Trypto-Casein Soy agar (TSA—Biokar Diagnostics, Allone, Beauvais, France) slants and, before each assay, were sub-cultured in Mueller-Hinton agar (MHA—Biokar Diagnostics, Allone, Beauvais, France). Y. ruckeri ATCC 29473 and L. anguillarum ATCC 1924 were kept in Nutrient Agar (Condalab, Madrid, Spain) and T. maritimum ATCC 43397 was kept in TMM agar (Condalab, Madrid, Spain), and were sub-cultured in the respective culture media before each assay. For S. pyogenes ATCC 19615, CAMHB was supplemented with 3.75% lysed horse blood (LBH—Oxoid, Basingstoke, England), whereas for C. jejuni it was supplemented with 2.5% LHB. Colony-forming unit counts of the inoculum were conducted to determine the initial inoculum size (which should be approximately 5×10^5 CFU/mL). Sterility and growth controls were included in each assay. The 96-well U-shaped untreated polystyrene microtiter plates were incubated for 20 h at 37 degrees C. (42 degrees C. for C. jejuni, in a microaerophilic atmosphere) and the minimal inhibitory concentration (MIC) was determined as the lowest concentration of compound that prevented visible growth. The minimal bactericidal concentration (MBC) was determined by spreading 100 μL of the content of the wells with no visible growth on MH plates. The MBC was determined as the lowest concentration of compound that killed 99.9% of the initial inoculum after overnight incubation at 37 degrees C. Two independent assays were performed for reference and MDR strains.
(§3) An initial screening of the antibacterial activity of the compounds was performed by the Kirby-Bauer disk diffusion method, as recommended by the Clinical and Laboratory Standards Institute (CLSI). Briefly, sterile 6 mm blank paper disks (Oxoid, Basingstoke, England) impregnated with 15 μg of each compound were placed on inoculated MH agar plates. A blank disk with dimethylsulfoxide (DMSO) was used as a negative control. MH inoculated plates were incubated for 18-20 h at 37 degrees C. At the end of incubation, the inhibition halos where measured. The MIC was used to determine the antibacterial activity of each compound, in accordance with the recommendations of the CLSI. Two-fold serial dilutions of the compounds were prepared in Mueller-Hinton Broth 2 (MHB2—Sigma-Aldrich, St. Louis, MO, USA) within the concentration range of 0.062-64 μg/mL. CTX ranging between 0.031-16 μg/mL was used as a control. Sterility and growth controls were included in each assay. Purity checks and colony counts of the inoculum suspensions were also performed in order to ensure that the final inoculum density closely approximates the intended number (5×10^5 CFU/mL). The MIC was determined as the lowest concentration of compound that inhibited growth of the bacteria. The MBC was assessed by spreading 10 μL of culture collected from wells showing no visible growth on MH agar plates. […]

Another assay has as its system E. coli SA/2 (ESBL). Put plainly: Antibacterial MIC/MBC (broth microdilution). Format: cell-based, Escherichia coli. In outline:
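Broth microdilution per CLSI, MHB2, 2-fold series 0.062-64 μg/mL, 5×10^5 CFU/mL, 20 h/37 degrees C; visible growth read for MIC. MBC: no-growth wells plated on MH agar, 99.9% kill cutoff. Duplicate runs.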
(In general: In broth dilution the organism is exposed to a series of concentrations in liquid medium.)

A further assay has as its system E. faecalis B3/101 (VRE). Put plainly: Antibacterial MIC/MBC (broth microdilution). Format: cell-based, Enterococcus faecalis.
Source text: as §1, §2, §3

The subject of assay [2] is Enterococcuss faecalis ATCC 29212. Put plainly: Antibacterial MIC/MBC (broth microdilution). Format: cell-based, Enterococcus faecalis.
Source text: as §1, §2, §3

The next assay relates to P. aeruginosa 33b (PDR). Put plainly: Antibacterial MIC/MBC (broth microdilution). In kind it is cell-based, Pseudomonas aeruginosa.
Source text: as §1, §2, §3

Assay [3] concerns Tenacibaculum maritimum ATCC 43397. Put plainly: Antibacterial disk diffusion. In kind it is cell-based. The following applies: Tenacibaculum maritimum ATCC 43397.
Source text: as §1, §2, §3
A general note: Agar diffusion results depend on both activity and mobility in agar.

Setting [4] is: Enterococcuss faecalis ATCC 29212.

As for `OC(Cn1cncn1)(Cn1cncn1)c1ccc(F)cc1F` [Fluconazole, reference compound], the “levels of extracellular K+ vs untreated control” value in the assay with C. albicans ATCC 10231 (8 μg/mL) was “not”.

As a reminder, the MBC is the lowest tested concentration that kills the bacteria rather than only halting them. As a reminder, the MIC is the least concentration at which growth counts as inhibited. Low readings indicate inhibition by little substance, high ones a need for much substance. As to `C[C@H](CCC(=O)NCCN)[C@H]1CC[C@H]2[C@@H]3CC[C@@H]4C[C@H](O)CC[C@]4(C)[C@H]3C[C@H](O)[C@]12C` [Compound 1, (R)—N-(2-aminoethyl)-4-((3R,5R,8R,9S,10S,12S,13R,14S,17R)-3,12-dihydroxy-10,13-dimethylhexadecahydro-1H-cyclopenta[a]phenanthren-17-yl) pentanamida], the “activity against Gram-negative bacteria (in words)” value in assay [1] (Gram-negative bacteria) was “exhibited activities”. Also, in assay [1] (all bacterial strains tested), the “spectrum of antibacterial activity (in words)” value is given as “active in every bacterial strain tested”. Further, the “antibacterial activity (in words)” value is “active” with E. coli SA/2 (ESBL) (E. coli SA/2), “displayed the same effect” in the assay with E. faecalis B3/101 (VRE) (E. faecalis B3/101), “exhibited antimicrobial activity” in assay [2] (E. faecalis ATCC 29212) and “active” in the assay on P. aeruginosa 33b (PDR) (P. aeruginosa 33b). Further, the MBC in the assay with E. coli SA/2 (ESBL) (E. coli SA/2 (ESBL)) was 32 µg/mL (≈ 73.6 µM); against E. faecalis B3/101 (VRE) (E. faecalis B3/101 (VRE)), 32 µg/mL (≈ 73.6 µM); in assay [2] (setting [4]), 32 µg/mL (≈ 73.6 µM); with P. aeruginosa 33b (PDR) (P. aeruginosa 33b (PDR)), over 64 µg/mL. Besides, the MIC stood at 32 µg/mL (≈ 73.6 µM) with E. coli SA/2 (ESBL) (E. coli SA/2 (ESBL)), 32 µg/mL (≈ 73.6 µM) with E. faecalis B3/101 (VRE) (E. faecalis B3/101 (VRE)), 16 µg/mL (≈ 36.8 µM) in assay [2] (setting [4]) and 64 µg/mL (≈ 147 µM) in the assay with P. aeruginosa 33b (PDR) (P. aeruginosa 33b (PDR)). Besides, the “levels of extracellular K+ vs untreated control” value with C. albicans ATCC 10231 (128, 64, and 32 μg/mL (2×MIC, MIC, ½×MIC)) is on record as “significant levels of extracellular K”. For the same compound, the Disk diffusion in assay [3] turned out to be 20 mm.
